# Reference: US20250214996A1, “SALTS AND SOLID FORMS OF AN ESTROGEN RECEPTOR ANTAGONIST” (Olema Pharmaceuticals, Inc., priority 2022, published 2025)
# Legend:
# Format in all cases: physicochemical
# [1] = Slurry in isopropanol for 1 day (XRPD)
# [2] = Stability in oven at 60° C. for two weeks
# Procedure: Amorphous Compound 1, Compound 1 Fumarate Form E, and Compound 1 Fumarate Form A Anhydrate were placed in an oven at 60° C. for two weeks to evaluate their stability.
# [3] = Dynamic vapor sorption (DVS) hygroscopicity
# Procedure: Dynamic Vapor Sorption (DVS) was measured by a SMS (Surface Measurement Systems) DVS Intrinsic. Parameters for DVS test are listed below:
# Alternatively, DVS was performed using Intrinsic DVS ([…], UK). About 30-50 mg of sample was placed in a sample basked and hung in the measuring chamber. For an isotherm test, the chamber temperature is maintained by a water bath at a constant 25±1° C. The sample was tested at a targeted RH from 0 to 90% full cycle in step mode. The analysis was performed in 10% RH increments. Time duration at each RH was set as 60 min so that the sample could reach equilibrium with the chamber environment. Data were collected in 20 s increments.
# A DVS isotherm plot was collected at 25° C. to investigate the solid form stability as a function of humidity. For Compound 1 Fumarate Form A Anhydrate, solids were pre-equilibrated at 0% RH to remove the unbounded solvent or water before the hygroscopicity experiment was started.
# [4] = Competitive slurry of Fumarate Form E and Fumarate Form A Anhydrate (XRPD)
# Procedure: Competitive slurry experiments were performed with Compound 1 Fumarate Form E and Compound 1 Fumarate Form A Anhydrate, as follows:
# Experiment #1: Compound 1 Fumarate Form E (100 mg), Compound 1 Fumarate Form A Anhydrate (100 mg), and isopropanol (2 mL) were added into two 8-mL vials and mixed well in a shaker at 25° C. and 40° C., respectively. Samples for analysis were taken at 24 h and 72 h.
# Experiment #2: Compound 1 Fumarate Form E (100 mg), Compound 1 Fumarate Form A Anhydrate (100 mg), and water (2 mL) were added into two 8-mL vials and mixed well in a shaker at 25° C. and 40° C., respectively. Samples for analysis were taken at 24 h and 72 h.
# Experiment #3: Compound 1 Fumarate Form E (100 mg), Compound 1 Fumarate Form A Anhydrate (100 mg), and ethyl acetate (2 mL) were added into two 8-mL vials and mixed well in a shaker at 25° C. and 40° C., respectively. Samples for analysis were taken at 24 h and 72 h.
# [5] = Solubility by gravimetric method; conditions: H2O, 25° C.
# Procedure: Solubility studies of Compound 1 and Compound 1 Fumarate in different solvents at 25° C. were performed. Solubility was measured by the dynamic method and gravimetric method.
# Gravimetric method: Excess solids and a certain amount of solvent were added 8 mL vials, stirred for 24 hours, and filtered.
# [6] = Water solubility at RT, 24 hours, HPLC/pH/XRPD
# Procedure: The HPLC method used for solubility measurements is summarized below:
# Water solubility was measured in water at RT to evaluate solubility and disproportionation risk. […] After centrifugation, supernatants were collected for HPLC and pH tests, and wet cakes were collected for XRPD characterization.
compound,measurement,setting,value
CCCN1CC(Oc2ccc([C@@H]3c4[nH]c5ccccc5c4C[C@@H](C)N3CC(C)(C)F)cc2)C1.O=C(O)/C=C/C(=O)O [Compound 1 Fumarate Form A Anhydrate],form after slurrying (XRPD),[1],No change in form
same,HPLC Purity (%) Starting,[2]; before storage,99.58%
same,XRPD,[2]; form after oven at 60° C. for two weeks,No change
same,HPLC Purity (%) 60° C.,[2]; oven at 60° C. for two weeks,99.54%
same,HPLC Purity (%) Degradation,[2]; oven at 60° C. for two weeks,−0.04%
same,stability relative to Amorphous Compound 1,[2]; oven at 60° C. for two weeks,improved stability
same,hygroscopicity by DVS,[3]; DVS,non-hygroscopic
same,water uptake up to 80% RH,[3]; DVS isotherm at 25° C.,less than 0.20%
same,Form Change after DVS?,[3]; XRPD before and after DVS,No
same,Hygroscopicity (%)* (class),[3]; based on water uptake at 25° C./80% RH,Non-hygroscopic
same,Hygroscopicity (%)* (water uptake),[3]; water uptake at 25° C./80% RH,(0.108) %
same,competitive slurry outcome (XRPD),"[4]; ethyl acetate, 72 h at 25° C. or 40° C.",a mixture of Compound 1 Fumarate Form E and Compound 1 Fumarate Form A Anhydrate remained
same,competitive slurry outcome (XRPD),"[4]; isopropanol, 24 h at 25° C. or 40° C.",completely transformed into Compound 1 Fumarate Form E
same,competitive slurry outcome (XRPD),"[4]; water, 72 h at 25° C. or 40° C.",a mixture of Compound 1 Fumarate Form E and Compound 1 Fumarate Form A Anhydrate remained
same,Solubility,[5],6500 µg/mL
same,Purity,[6]; HPLC after 24 hours in water at RT,~100%
same,pH,[6]; supernatant after 24 hours in water at RT,5.24
same,Solubility in Water,"[6]; water, RT, 24 hours, stirring at 400 rpm",2230 µg/mL
same,Form Change after 24 h?,[6]; wet cake XRPD after 24 hours in water at RT,No
